# Measured values taken from US20120294879A1, “CONSENSUS SEQUENCE FOR INFLUENZA A VIRUS” (priority 2009, published 2012).
# “Also recorded” adds a separate entry of the source. Where two headings read alike, the source gives them in different places.
# Assays:
# [1] = tested on: HLA-A2, -A24, -B7, -DR2, -DR3 and -DR4 transgenic mice; assay type: cell-based; parameters: key to HLA allele this work (HLA restriction by ELISpot): —represents no positive ELISpot response
# [2] = tested on: splenocytes of HLA-DR3 (DRB1*0301) transgenic mice; assay type: cell-based; parameters: key to DR3: average IFN-γ spots forming cells per million splenocytes: — represents no positive ELISpot response
# [3] = tested on: splenocytes of HLA-B7 (B*0702) transgenic mice; assay type: cell-based; parameters: key to B7: average IFN-γ spots forming cells per million splenocytes: — represents no positive ELISpot response
# [4] = tested on: splenocytes of HLA-DR4 (DRB1*0401) transgenic mice; assay type: cell-based; parameters: key: — represents no positive ELISpot response
# [5] = tested on: splenocytes of HLA-A24 (A*2402) transgenic mice; assay type: cell-based; parameters: key to A24: average IFN-γ spots forming cells per million splenocytes: — represents no positive ELISpot response
# [6] = tested on: HLA alleles; details: epitopes extracted from the IEDB, humans infected with influenza A, cited from earlier work
# [7] = tested on: splenocytes of HLA-DR2 (DRB1*1501) transgenic mice; assay type: cell-based; parameters: key to DR2: average IFN-γ spots forming cells per million splenocytes: — represents no positive ELISpot response
# [8] = target: HLA-DR3 (HLA-DRA*0101 and -DRB1*0301), as expressed in HLA-DR3 transgenic mice (human); test: cell-based or functional assay
# [9] = target: HLA-DR4 (HLA-DRA*0101 and -DRB1*0401), as expressed in HLA-DR4 transgenic mice (human); test: cell-based or functional assay
Substance,HLA allele this work (HLA restriction by ELISpot) [1],DR3: average IFN-γ spots forming cells per million splenocytes [2],B7: average IFN-γ spots forming cells per million splenocytes [3],DR4: average IFN-γ spots forming cells per million splenocytes [4],A24: average IFN-γ spots forming cells per million splenocytes [5],DR2: average IFN-γ spots forming cells per million splenocytes [7],other results
AGALASCMGLIYNRMGA,—,,,,,,
ERRNKYLEEHPSAGKDP,DR4,—,—,121 ± 1(0.1) IFN-γ spots forming cells per million splenocytes,—,—,"Published HLA alleles (reported human T cell epitopes) [6]: DR1, DRB1*0101"
FVANFSMELPSFGVSGV,—,,,,,,
GKGYMFESKSMKLRTQI,DR2,—,—,—,—,52 ± 2(1) IFN-γ spots forming cells per million splenocytes,DR2: lowest concentration of peptide giving positive ELISpot response in peptide titration [7]: 52 ± 2(1) μg/ml
GYTMDTVNRTHQYSERG,DR4,—,—,125 ± 11(0.1) IFN-γ spots forming cells per million splenocytes,—,—,
HENRMVLASTTAKAMEQ,DR4,—,—,165 ± 1(0.1) IFN-γ spots forming cells per million splenocytes,—,—,"Published HLA alleles (reported human T cell epitopes) [6]: A3, A11, DRB1*0701"
KTGGPIYKRVDGKWVRE,DR3,,,,,,
KWMMAMKYPITADKRIT,DR4,—,—,161 ± 18(0.1) IFN-γ spots forming cells per million splenocytes,—,—,
LEVCFMYSDFHFINEQG,DR2,—,—,—,—,64 ± 11(1) IFN-γ spots forming cells per million splenocytes,DR2: lowest concentration of peptide giving positive ELISpot response in peptide titration [7]: 64 ± 11(1) μg/ml
LTIERMVLSAFDERRNK,—,,,,,,
MDVNPTLLFLKVPAQNA,—,,,,,,
MSLLTEVETYVLSIVPS,—,,,,,,
NKMARLGKGYMFESKSM,—,,,,,,
NQPEWFRNILSIAPIMF,,—,60 ± 8 IFN-γ spots forming cells per million splenocytes,—,—,—,lowest peptide concentration giving positive IFN-γ ELISpot response (apparent functional avidity) [1]: solely at the highest peptide concentration; B7: lowest concentration of peptide giving positive ELISpot response in peptide titration [3]: (10) μg/ml
NTYQWIIRNWETVKIQW,both HLA class I and II alleles,—,—,—,322 ± 44 IFN-γ spots forming cells per million splenocytes,96 ± 9(0.1) IFN-γ spots forming cells per million splenocytes,A24: lowest concentration of peptide giving positive ELISpot response in peptide titration [5]: (0.1) μg/ml; DR2: lowest concentration of peptide giving positive ELISpot response in peptide titration [7]: 96 ± 9(0.1) μg/ml
PB1 554-570 peptide of influenza virus A/New York/348/2003 (H1N1),,,,,,,"IFN-γ ELISpot at 10 µg/ml peptide, splenocytes of immunized HLA transgenic mice [8]: 166; lowest concentration of peptide giving positive ELISpot response [8]: 0.1 µg/mL; IFN-γ ELISpot at 10 µg/ml peptide, splenocytes of immunized HLA transgenic mice [9]: 76; lowest concentration of peptide giving positive ELISpot response [9]: 0.1 µg/mL"
PB1 650-666 peptide of influenza virus A/New York/348/2003 (H1N1),,,,,,,"IFN-γ ELISpot at 10 µg/ml peptide, splenocytes of immunized HLA transgenic mice [8]: 142; lowest concentration of peptide giving positive ELISpot response [8]: 0.1 µg/mL; IFN-γ ELISpot at 10 µg/ml peptide, splenocytes of immunized HLA transgenic mice [9]: 41; lowest concentration of peptide giving positive ELISpot response [9]: 0.1 µg/mL"
PB2 434-450 peptide of influenza virus A/New York/348/2003 (H1N1),,,,,,,"IFN-γ ELISpot at 10 µg/ml peptide, splenocytes of immunized HLA transgenic mice [8]: 444; lowest concentration of peptide giving positive ELISpot response [8]: 0.1 µg/mL"
PB2 464-480 peptide of influenza virus A/New York/348/2003 (H1N1),,,,,,,"IFN-γ ELISpot at 10 µg/ml peptide, splenocytes of immunized HLA transgenic mice [8]: 324; lowest concentration of peptide giving positive ELISpot response [8]: 0.1 µg/mL"
RCHRGDTQIQTRRSFEI,DR2,—,—,—,—,194 ± 47(0.1) IFN-γ spots forming cells per million splenocytes,DR2: lowest concentration of peptide giving positive ELISpot response in peptide titration [7]: 194 ± 47(0.1) μg/ml
RGILEDEQMYQRCCNLF,both HLA class I and II alleles,181 ± 10(0.1) IFN-γ spots forming cells per million splenocytes,—,—,78 ± 4 IFN-γ spots forming cells per million splenocytes,—,DR3: lowest concentration of peptide giving positive ELISpot response in peptide titration [2]: 181 ± 10(0.1) μg/ml; A24: lowest concentration of peptide giving positive ELISpot response in peptide titration [5]: (0.1) μg/ml
RMVLASTTAK [reference compound],,,,,,,Published HLA alleles (reported human T cell epitopes) [6]: HLA-A3 and -A11
SAGQISTQPTFSVQRNL,DR2,—,—,—,—,207 ± 3(0.1) IFN-γ spots forming cells per million splenocytes,"Published HLA alleles (reported human T cell epitopes) ([6]; listed as NP 402-418): DRB1*0101,; also recorded: DRB1*0404; DR2: lowest concentration of peptide giving positive ELISpot response in peptide titration [7]: 207 ± 3(0.1) μg/ml"
TNPLIRHENRMVLASTT,"DR2, DR3",120 ± 4(0.1) IFN-γ spots forming cells per million splenocytes,—,—,—,56 ± 5(0.1) IFN-γ spots forming cells per million splenocytes,"DR3: lowest concentration of peptide giving positive ELISpot response in peptide titration [2]: 120 ± 4(0.1) μg/ml; Published HLA alleles (reported human T cell epitopes) ([6]; listed as M1 169-185): B39, DR2, DRB1*0103,; also recorded: DRB1*1101,; also recorded: DRB1*0701, DRB5*0101; DR2: lowest concentration of peptide giving positive ELISpot response in peptide titration [7]: 56 ± 5(0.1) μg/ml"
TQIQTRRSFEIKKLWDQ,—,,,,,,
TQPTFSVQRNLPFDKTT,,41 ± 2(10) IFN-γ spots forming cells per million splenocytes,—,—,—,110 ± 14(1) IFN-γ spots forming cells per million splenocytes,DR3: lowest concentration of peptide giving positive ELISpot response in peptide titration [2]: 41 ± 2(10) μg/ml; lowest peptide concentration giving positive IFN-γ ELISpot response (apparent functional avidity) [1]: solely at the highest peptide concentration; DR2: lowest concentration of peptide giving positive ELISpot response in peptide titration [7]: 110 ± 14(1) μg/ml
VLSAFDERRNKYLEEHP,—,,,,,,Published HLA alleles (reported human T cell epitopes) [6]: DRB1*0101
VLYDKEEIRRIWRQANN,DR3,501 ± 42(0.1) IFN-γ spots forming cells per million splenocytes,—,—,—,—,DR3: lowest concentration of peptide giving positive ELISpot response in peptide titration [2]: 501 ± 42(0.1) μg/ml; Published HLA alleles (reported human T cell epitopes) [6]: DRB1*1101
